Source: patent US20090197955A1, “METHODS OF IMPROVING DHA DEPOSITION AND RELATED FUNCTION AND/OR DEVELOPMENT” (Monsanto Company, priority 2008, published 2009)

Assay: Fatty acid composition of pig tissues (ham, loin, belly, skin) after feeding SDA ethyl ester diets, 35 day study
Assay type: in vivo, pigs
Method: A 35 day study was conducted to determine whether pigs fed a diet containing SDA could enhance tissues with improved fatty acid profiles including increased levels of SDA, EPA, and DHA.
Four test diets (Treatment 2, 3, 4, and 5) with SDA ethyl ester substituted for corn oil to provide 0.2, 0.4, 0.6 and 0.8% (w/w SDA active ingredient, as-is basis) were fed ad libitum to one pen of four pigs throughout the 35-day test period Table 4). All diets were fed in meal form. Treatment 6 was fed the same diet as Treatment 5, but for a duration of only 21 days.
All pigs were individually weighed at initiation of the acclimation and test period, and immediately prior to slaughter. Feed consumption per pen was recorded. Upon completion of the feeding period, pigs were slaughtered for tissue collection and carcass evaluation. Pigs were slaughtered using standard industry practices (electrical stunning, exsanguinations, scalding, dehairing and evisceration). Live weights prior to slaughter and hot carcass weights were recorded. The left side of each carcass was fabricated and samples were obtained from the loin (longissimus muscle), ham (semimembranosus muscle) and belly (a section from the center of the belly) for sensory evaluation, fatty acid, and proximate analysis. Prior to removing the sample for sensory and fatty and proximate analysis from the belly the firmness of the belly was evaluated using a flop test. At 24 hr postmortem fat thickness (10th rib), loin eye area (10th rib), visual color, firmness and marbling, Minolta color (L*a*b*), pH, and drip loss were measured.
In order to evaluate the fatty acid composition of pig tissues (loin, ham, skin, and belly), samples were stored at −80° C. until evaluation. After thawing, ˜22 g of fresh pig tissue was chopped into small pieces and thoroughly mixed before 10 g was sub sampled and lyophilized. Lyophilized samples were ground in 30 ml Sarstedt tubes with two ball bearings using a Mega Grinder. Ground samples (loin and ham: 50 mg; skin: 100 mg; belly: 150 mg; diet: 500 mg) were directly methylated with sulfuric acid in methanol (loin and ham: 1 mL; skin: 3 mL; belly: 10 mL; diet: 1.5 mL) sealed in the presence of butylated hydroxytoluene (50 mg BHT in 100 ml reagent) in reflux conditions of 90° C. Resultant fatty acid methyl esters (FAME's) were separated by capillary gas chromatography (GC) and detected by flame ionization detector (FID). The column used was a Supelco Omegawax 250 capillary column with dimensions of 30 m×0.25 mm×0.25 μm film thickness. The run time was 32 minutes. Peaks were identified based on their relative retention time compared to a FAME reference mixture. Quantification was achieved by using an internal standard (c15:0 triacylglyceride (TAG) for pig tissue samples and c17:0 TAG for diet samples). Results are reported as FA g/100 g fat with theoretical response correction.
For Table 6 below, each value represents g/100 g total fatty acids a mean of 4 samples (1 sample from each of 4 pigs) per treatment.

CC/C=C\C/C=C\C/C=C\C/C=C\CCCCC(=O)O [SDA, stearidonic acid]
18:4 n-3, ham (SDA 0.6%, 35 Day): 3.56c mg FA/100 g of fresh tissue | 20:1 n-9, ham (SDA 0.6%, 35 Day): 13.3 mg FA/100 g of fresh tissue | 20:2 n-6, ham (SDA 0.6%, 35 Day): 6.1b mg FA/100 g of fresh tissue | 20:3 n-3, ham (SDA 0.6%, 35 Day): 0.87 mg FA/100 g of fresh tissue | 20:4 n-3, ham (SDA 0.6%, 35 Day): 5.85c mg FA/100 g of fresh tissue | 20:4 n-6, ham (SDA 0.6%, 35 Day): 55.3 mg FA/100 g of fresh tissue | 20:5 n-3, ham (SDA 0.6%, 35 Day): 11.32bc mg FA/100 g of fresh tissue | 22:1 n-11, ham (SDA 0.6%, 35 Day): 0.58a mg FA/100 g of fresh tissue | 22:5 n-3, ham (SDA 0.6%, 35 Day): 14.4bc mg FA/100 g of fresh tissue | 22:6 n-3, ham (SDA 0.6%, 35 Day): 2.14 mg FA/100 g of fresh tissue | Lipid content, ham (SDA 0.6%, 35 Day): 2.24% | Total PUFA, ham (SDA 0.6%, 35 Day): 337.7 mg FA/100 g of fresh tissue | Total monoenes, ham (SDA 0.6%, 35 Day): 1039 mg FA/100 g of fresh tissue | Total n-3, ham (SDA 0.6%, 35 Day): 43.1b mg FA/100 g of fresh tissue | Total n-6, ham (SDA 0.6%, 35 Day): 294.5 mg FA/100 g of fresh tissue | Total saturates, ham (SDA 0.6%, 35 Day): 765.2 mg FA/100 g of fresh tissue | n-3/n-6, ham (SDA 0.6%, 35 Day): 0.147 | 12:0, ham (SDA 0.8%, 21 Day): 2.2 mg FA/100 g of fresh tissue | 14:0, ham (SDA 0.8%, 21 Day): 36.8 mg FA/100 g of fresh tissue | 16:0, ham (SDA 0.8%, 21 Day): 701.1 mg FA/100 g of fresh tissue | 16:1 n-7, ham (SDA 0.8%, 21 Day): 108.3 mg FA/100 g of fresh tissue | 18:0, ham (SDA 0.8%, 21 Day): 358.1 mg FA/100 g of fresh tissue | 18:1 n-7, ham (SDA 0.8%, 21 Day): 138.1 mg FA/100 g of fresh tissue | 18:1 n-9, ham (SDA 0.8%, 21 Day): 1266.2 mg FA/100 g of fresh tissue | 18:2 n-6, ham (SDA 0.8%, 21 Day): 290.7 mg FA/100 g of fresh tissue | 18:3 n-3, ham (SDA 0.8%, 21 Day): 8.66 mg FA/100 g of fresh tissue | 18:4 n-3, ham (SDA 0.8%, 21 Day): 3.67c mg FA/100 g of fresh tissue | 20:1 n-9, ham (SDA 0.8%, 21 Day): 21.8 mg FA/100 g of fresh tissue | 20:2 n-6, ham (SDA 0.8%, 21 Day): 11.3a mg FA/100 g of fresh tissue | 20:3 n-3, ham (SDA 0.8%, 21 Day): 1.33 mg FA/100 g of fresh tissue | 20:4 n-3, ham (SDA 0.8%, 21 Day): 7.23c mg FA/100 g of fresh tissue | 20:4 n-6, ham (SDA 0.8%, 21 Day): 63.4 mg FA/100 g of fresh tissue | 20:5 n-3, ham (SDA 0.8%, 21 Day): 9.68b mg FA/100 g of fresh tissue | 22:1 n-11, ham (SDA 0.8%, 21 Day): 0.95ab mg FA/100 g of fresh tissue | 22:5 n-3, ham (SDA 0.8%, 21 Day): 13.2bc mg FA/100 g of fresh tissue | 22:6 n-3, ham (SDA 0.8%, 21 Day): 1.85 mg FA/100 g of fresh tissue | Lipid content, ham (SDA 0.8%, 21 Day): 3.23% | Total PUFA, ham (SDA 0.8%, 21 Day): 433.7 mg FA/100 g of fresh tissue | Total monoenes, ham (SDA 0.8%, 21 Day): 1546 mg FA/100 g of fresh tissue | Total n-3, ham (SDA 0.8%, 21 Day): 45.6b mg FA/100 g of fresh tissue | Total n-6, ham (SDA 0.8%, 21 Day): 388.1 mg FA/100 g of fresh tissue | Total saturates, ham (SDA 0.8%, 21 Day): 1104.4 mg FA/100 g of fresh tissue | n-3/n-6, ham (SDA 0.8%, 21 Day): 0.121c | 12:0, ham (SDA 0.8%, 35 Day): 1.04 mg FA/100 g of fresh tissue | 14:0, ham (SDA 0.8%, 35 Day): 18.3 mg FA/100 g of fresh tissue | 16:0, ham (SDA 0.8%, 35 Day): 386.7 mg FA/100 g of fresh tissue | 16:1 n-7, ham (SDA 0.8%, 35 Day): 52.8 mg FA/100 g of fresh tissue | 18:0, ham (SDA 0.8%, 35 Day): 206.6 mg FA/100 g of fresh tissue | 18:1 n-7, ham (SDA 0.8%, 35 Day): 81.5 mg FA/100 g of fresh tissue | 18:1 n-9, ham (SDA 0.8%, 35 Day): 685.9 mg FA/100 g of fresh tissue | 18:2 n-6, ham (SDA 0.8%, 35 Day): 208.6 mg FA/100 g of fresh tissue | 18:3 n-3, ham (SDA 0.8%, 35 Day): 4.70 mg FA/100 g of fresh tissue | 18:4 n-3, ham (SDA 0.8%, 35 Day): 4.09c mg FA/100 g of fresh tissue | 20:1 n-9, ham (SDA 0.8%, 35 Day): 9.9 mg FA/100 g of fresh tissue | 20:2 n-6, ham (SDA 0.8%, 35 Day): 5.1b mg FA/100 g of fresh tissue | 20:3 n-3, ham (SDA 0.8%, 35 Day): 0.62 mg FA/100 g of fresh tissue | 20:4 n-3, ham (SDA 0.8%, 35 Day): 5.36bc mg FA/100 g of fresh tissue | 20:4 n-6, ham (SDA 0.8%, 35 Day): 54.2 mg FA/100 g of fresh tissue | 20:5 n-3, ham (SDA 0.8%, 35 Day): 14.69c mg FA/100 g of fresh tissue | 22:1 n-11, ham (SDA 0.8%, 35 Day): 0.57a mg FA/100 g of fresh tissue | 22:5 n-3, ham (SDA 0.8%, 35 Day): 14.2bc mg FA/100 g of fresh tissue | 22:6 n-3, ham (SDA 0.8%, 35 Day): 2.35 mg FA/100 g of fresh tissue | Lipid content, ham (SDA 0.8%, 35 Day): 1.88% | Total PUFA, ham (SDA 0.8%, 35 Day): 330.6 mg FA/100 g of fresh tissue | Total monoenes, ham (SDA 0.8%, 35 Day): 846 mg FA/100 g of fresh tissue | Total n-3, ham (SDA 0.8%, 35 Day): 46.0b mg FA/100 g of fresh tissue | Total n-6, ham (SDA 0.8%, 35 Day): 284.6 mg FA/100 g of fresh tissue | Total saturates, ham (SDA 0.8%, 35 Day): 616.6 mg FA/100 g of fresh tissue | n-3/n-6, ham (SDA 0.8%, 35 Day): 0.162 | Omega 3 fatty acid enrichment in belly, loin, ham and skin tissues as compared to the control (SDA fed for the last 35 days prior to slaughter): significant increase | More DHA deposition with 35 days than with 21 days of SDA consumption (Treatment 5 (35 day) vs Treatment six (21 day), 0.8% SDA, ham): about 27%
